Data from US20240124483A1, “Methods for the Treatment of Fibrotic Disease” (SHY Therapeutics, LLC, priority 2021, published 2024).
Like-named read-outs stand apart in the source and are kept apart here.

What was measured:
[1] = tested on: JNK; experiment: JNK Activation Assay in Panc-1 (western blot); format: cell-based, Human; parameters: key: Y = yes; N = No; details: at 10 μM
Protocol: (§1) Cell lines: Human tumor-derived pancreatic cancer cell line Panc-1 and mouse muscle myoblast C2C12 were purchased from American Type Culture Collection and grown in complete DMEM-High Glucose, supplemented with penicillin (100 U/mL), streptomycin (100 μg/mL), and 10% heat-inactivated FBS at 37° C. in a humidified incubator with 5% CO2.
(§2) Method: Cells were plated at 350000 cells/well density in a 12-well plate, allowed 3 hours to adhere to the plate, then starved in the appropriate medium in the presence of 0.5% FBS overnight. The small molecules to be tested were added to the cells in the final concentration of 10 μM in the presence of 0.3% DMSO for 3 hours incubation at 37° C. For IC50 value determination, serial dilutions of compounds were added to cells under the same conditions. Next, Panc-1 cells were stimulated with 10 ng/ml TGF-b1 for 1 hour, and C2C12 cells were stimulated with 10 ng/ml TGF-b1 for 20 minutes (recombinant human TGF-b1, R&D Systems). After stimulation cells were lysed with lysis buffer containing 1% Triton X-100, EDTA, and Halt™ Protease & Phosphatase Inhibitor Cocktail (Thermo Scientific). Protein concentration was assessed by BCA protein assay (Thermo Scientific). Phosphorylation level of JNK was determined by western blot.
(§3) Western blot protocol: Equal amounts of protein (15-50 μg) were separated by SDS-PAGE and transferred to nitrocellulose membranes (Invitrogen by Thermo Fisher Scientific). The membrane was stained with Ponceau S Stain (Boston BioProducts) to verify uniform protein loading. Membranes were blocked with 10% milk and phosphorylation levels of Smad2, Smad3, INK and p38 were assessed by incubating overnight at 4° C. with the following antibody: Phospho-SAPK/JNK (Thr183/Tyr185), from Cell Signaling Technology. Then the membranes were incubated with HRP-conjugated secondary antibody (Jackson Immunoresearch, West Grove, PA). Bands were incubated in Amersham ECL Prime Western Blotting Detection Reagent (GE Healthcare) and visualized using the ChemiDoc MP imaging system (Bio-Rad).

[2] = tested on: MAPK p38; experiment: MAPK p38 Activation Assay in Panc-1 (western blot); format: cell-based, Human; parameters: key: Y = yes; N = No; details: at 10 μM
Protocol: as §1
as §2, with “MAPK p38” for “JNK”
as §3, with “Smad2/Smad3” for “Smad2, Smad3, INK and p38”, “Phospho-p38 MAPK (Thr180/Tyr182),” for “Phospho-SAPK/JNK (Thr183/Tyr185),”

[3] = molecular target: KRas wild type (Homo sapiens (Human), UniProt P01116); experiment: Ras GTP Binding Domain Inhibition Assay, KRas wild type
Protocol: A Ras Superfamily Activity Assay (as disclosed in International Application No. PCT/US2018/038613, filed Jun. 20, 2018, which is incorporated by reference in its entirety) was used as a specific assay to evaluate compounds against the following for the following Ras Superfamily proteins: KRas wild type, KRas Q61H mutant, KRas G12C mutant, KRas G12D mutant, Rac-1, and Rho-A.
Buffer-I: • 25 mM Tris-HCl, pH 7.4 • 27 mM KCl • 137 mM NaCl • 1 mM MgCl2 • 1 mM DTT
Buffer-II: • 50 mM Tris-HCl, pH 7.0 • 1 mM MgCl2 • 1 mM DTT
The small GTPases proteins: KRas wild type. KRas Q61H mutant, KRas G12C mutant, KRas G12D mutants, Rac-1, and Rho-A were expressed as His-tagged proteins. In addition, the Guanosine nucleotide Exchange Factor (GEF) Sos protein (residues 556-1049) was expressed as a His-tagged protein. In cells, the guanine nucleotide exchange factor Sos protein promotes activation of Ras proteins by stimulating an exchange of GDP for GTP. The inclusion of Sos to the Ras GTP binding domain inhibition assay may be considered as an alternative representation of physiological cellular conditions for evaluating the inhibitory activity of some of the tested small molecules.
For the assay, all purified small GTPases proteins were diluted in Buffer-I or Buffer-II to a final concentration of 10-30 μg/mL. 200 μL of each diluted protein was added to a nickel-coated 96-well plate and incubated overnight at 4° C. Then the protein solution was discarded and 200 μL of Buffer-I or Buffer-II was added to each well in the presence of 1% DMSO. Compounds to be tested were added to the protein-coated wells at final concentration of 20 μM, and incubated for 3 hours at room temperature with and without 10-30 μg/mL of Sos added to the final hour of the incubation. When performing IC50 measurements a serial dilution of all tested concentrations was added. Then Cy3-GTP or Cy5-GTP was added to each well to a final concentration of 100 nM. The labeled GTP was incubated for 45 minutes at room temperature. Following GTP incubation, wells were washed 3× in Buffer-I or Buffer-II and 200 μL of Buffer-I or Buffer-II was added to each well. Following washes, the amount of bound labeled-GTP was measured using a SpectraMax M3 (Molecular Devices).

[4] = + SOS, read-out: KRas wild type + SOS: % inh.
[5] = without SOS, read-out: KRas wild type: % inh.

KRas wild type, sequence (P01116 other isoform, or with tags, fused parts or gaps): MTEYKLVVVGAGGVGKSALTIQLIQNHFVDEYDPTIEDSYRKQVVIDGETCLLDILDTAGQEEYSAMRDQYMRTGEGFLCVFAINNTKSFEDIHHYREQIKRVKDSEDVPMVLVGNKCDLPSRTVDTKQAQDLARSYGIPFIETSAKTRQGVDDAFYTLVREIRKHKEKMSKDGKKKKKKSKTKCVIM

inhibition at 20 µM [3, 4] [%]	inhibition at 20 µM [3, 5] [%]	Compound	Activation of JNK in PANC-1 [1]	Activation of MAPK p38 in PANC-1 [2]
46 to 75	76 to 100	CO[C@H]1C[C@H](CNc2nc(-c3nccn3C)nc3sc(-c4ccn(C(C)C)n4)c(C)c23)C1 [Compound 16, 6-(1-Isopropyl-1H-pyrazol-3-yl)-N-(((1r,3r)-3-methoxycyclobutyl)methyl)-5-methyl-2-(1-methyl-1H-imidazol-2-yl)thieno[2,3-d]pyrimidin-4-amine]	Y	Y
46 to 75	26 to 45	COc1cccc(Nc2nc(-c3nccn3C)nc3sc(-c4ccn(C(C)C)n4)c(C)c23)c1 [Compound 17, 6-(1-Isopropyl-1H-pyrazol-3-yl)-N-(3-methoxyphenyl)-5-methyl-2-(1-methyl-1H-imidazol-2-yl)thieno[2,3-d]pyrimidin-4-amine]	Y	Y
46 to 75	46 to 75	COc1cccc(Nc2nc(-c3nccn3C)nc3sc(-c4ccn(C(C)C)n4)c(C)c23)n1 [Compound 18, 6-(1-Isopropyl-1H-pyrazol-3-yl)-N-(6-methoxypyridin-2-yl)-5-methyl-2-(1-methyl-1H-imidazol-2-yl)thieno[2,3-d]pyrimidin-4-amine]	Y	Y
76 to 100	76 to 100	COc1cc(Nc2nc(-c3nccn3C)nc3sc(-c4ccn(C(C)C)n4)c(C)c23)ncn1 [Compound 19, 6-(1-Isopropyl-1H-pyrazol-3-yl)-N-(6-methoxypyrimidin-4-yl)-5-methyl-2-(1-methyl-1H-imidazol-2-yl)thieno[2,3-d]pyrimidin-4-amine]	Y	Y
76 to 100	76 to 100	COCCOCCNc1nc(-c2nccn2C)nc2sc(-c3ccn(C(C)C)n3)c(C)c12 [Compound 21, 6-(1-Isopropyl-1H-pyrazol-3-yl)-N-(2-(2-methoxyethoxy)ethyl)-5-methyl-2-(1-methyl-1H-imidazol-2-yl)thieno[2,3-d]pyrimidin-4-amine]	Y	Y
76 to 100	76 to 100	Cc1c(-c2ccn(C(C)C)n2)sc2nc(-c3nccn3C)nc(NCCN3CCOCC3)c12 [Compound 22, 6-(1-Isopropyl-1H-pyrazol-3-yl)-5-methyl-2-(1-methyl-1H-imidazol-2-yl)-N-(2-morpholinoethyl)thieno[2,3-d]pyrimidin-4-amine]	Y	Y
76 to 100	76 to 100	Cc1c(-c2ccn(C(C)C)n2)sc2nc(-c3nccn3C)nc(NCCN3CCS(=O)(=O)CC3)c12 [Compound 23, 4-(2-((6-(1-Isopropyl-1H-pyrazol-3-yl)-5-methyl-2-(1-methyl-1H-imidazol-2-yl)thieno[2,3-d]pyrimidin-4-yl)amino)ethyl)thiomorpholine 1,1-dioxide]	N	Y
76 to 100	76 to 100	CO[C@H]1CNC[C@@H](Nc2nc(-c3nccn3C)nc3sc(-c4ccn(C(C)C)n4)cc23)C1 [Compound 28, 6-(1-Isopropyl-1H-pyrazol-3-yl)-N-((3S,5R)-5-methoxypiperidin-3-yl)-2-(1-methyl-1H-imidazol-2-yl)thieno[2,3-d]pyrimidin-4-amine]	Y	Y
76 to 100	76 to 100	COCCn1c(-c2nccn2C)nc2sc(-c3ccn(C(C)C)n3)c(C)c2c1=O [Compound 29, 6-(1-Isopropyl-1H-pyrazol-3-yl)-3-(2-methoxyethyl)-5-methyl-2-(1-methyl-1H-imidazol-2-yl)thieno[2,3-d]pyrimidin-4(3H)-one]	Y	Y
0	1 to 25	COCCOc1nc(-c2nccn2C)nc2sc(-c3ccn(C(C)C)n3)c(C)c12 [Compound 30, 6-(1-Isopropyl-1H-pyrazol-3-yl)-4-(2-methoxyethoxy)-5-methyl-2-(1-methyl-1H-imidazol-2-yl)thieno[2,3-d]pyrimidine]	N	N
1 to 25	1 to 25	COCCCn1c(-c2nccn2C)nc2sc(-c3ccn(C(C)C)n3)c(C)c2c1=O [Compound 31, 6-(1-Isopropyl-1H-pyrazol-3-yl)-3-(3-methoxypropyl)-5-methyl-2-(1-methyl-1H-imidazol-2-yl)thieno[2,3-d]pyrimidin-4(3H)-one]	N	N
76 to 100	76 to 100	COCCCOc1nc(-c2nccn2C)nc2sc(-c3ccn(C(C)C)n3)c(C)c12 [Compound 32, 6-(1-Isopropyl-1H-pyrazol-3-yl)-4-(3-methoxypropoxy)-5-methyl-2-(1-methyl-1H-imidazol-2-yl)thieno[2,3-d]pyrimidine]	Y	N
1 to 25	0	COCCCCn1c(-c2nccn2C)nc2sc(-c3ccn(C(C)C)n3)c(C)c2c1=O [Compound 33, 6-(1-Isopropyl-1H-pyrazol-3-yl)-3-(4-methoxybutyl)-5-methyl-2-(1-methyl-1H-imidazol-2-yl)thieno[2,3-d]pyrimidin-4(3H)-one]	N	N
